Columns and labels:
COX-2 [1] = test: UV-induced COX-2 expression, Western blotting; assay type: cell-based, human; conditions: HaCaT cells; 10, 25, 50 μM; UV 100 J/m^2; 16 hours
Procedure: In order to investigate the effect of capsiate on UV-induced COX-2 expression in human keratinocytes, 5×10^5 HaCaT cells were placed on a 60 mm Petri dish and cultured for 24 hours in DMEM containing 10% FBS.
Subsequently, the cells were cultured for 24 hours in DMEM containing 1% FBS until starvation. Then, after treating with capsiate for 30 minutes at different concentrations (10 μM, 25 μM, 50 μM), followed by washing 3 times with PBS, UV was irradiated at an intensity of 100 J/m^2 in order to induce the expression of COX-2. Immediately after the UV irradiation, the cells were washed again with PBS and further cultured for 16 hours in DMEM containing 1% FBS, which was treated with capsiate at the same concentration as in the pre-treatment.
Western blotting was carried out as follows in order to evaluate the degree of COX-2 expression in the cells. […]
In order to investigate the effect of dihydrocapsiate on UV-induced COX-2 expression in human keratinocytes, the degree of COX-2 expression was evaluated in the same manner as Example 2-1, except for using dihydrocapsiate instead of capsiate.

TNF-α = test: UV-induced pro-inflammatory cytokine mRNA, RT-PCR: TNF-α; assay type: cell-based, human; conditions: HaCaT cells; 10, 25, 50 μM; UV 100 J/m^2; 4 hours
Procedure: 1×10^6 HaCaT cells were placed on a 100 mm Petri dish and cultured for 24 hours in DMEM containing 10% FBS. Subsequently, the cells were cultured for 24 hours in DMEM containing 1% FBS until starvation. Then, after treating with capsiate at different concentrations (10 μM, 25 μM, 50 μM) for 30 minutes, followed by washing 3 times with PBS, UV was irradiated at an intensity of 100 J/m^2 to induce the production of cytokines. Immediately after the UV irradiation, the cells were washed again with PBS and further cultured for 4 hours in DMEM containing 1% FBS, which was treated with capsiate at the same concentration as in the pre-treatment.
Then, the degree of mRNA expression for IL-6, IL-8 and TNF-α induced mainly in the skin by the UV irradiation was evaluated by RT-PCR in order to measure the inhibition effect against the pro-inflammatory cytokines.
RNAs were extracted from the cells of each test group using Trizol (Invitrogen, USA) and used as template for PCR (PTC-225 Peltier thermal cycler, MJ Research, USA) to prepare cDNAs for each test group. Using the resultant cDNAs as template, the degree of mRNA expression for IL-6, IL-8 and TNF-α was measured by RT-PCR (Roter Gene 6000 series, Corbett Research, Australia) using commercial IL-6, IL-8 and TNF-α primers. […]

CD31 = test: Endothelial cell content in Matrigel plug, CD31 immunohistochemical staining; assay type: in vivo; conditions: C57/BL6 mouse Matrigel plug; 60 μg; 100 ng VEGF
Procedure: Immunohistochemical staining was carried out using CD31 in order to measure the endothelial cell content in the Matrigel plug.
The Matrigel plug was fixed using 2% formaldehyde and moisture was removed from the Matrigel using 15% sucrose and 30% sucrose based on the principle of osmosis. Then, the Matrigel plug was hardened at −70° C. The hardened Matrigel plug was sliced with a thickness of 8-12 μm, stained with CD31-antibody (PECAM-1 antibody, BD Biosciences, USA) and the level of expression by endothelial cells was observed under a microscope.

cyclin D1 = test: Cyclin expression, Western blotting: cyclin D1; assay type: cell-based, human; conditions: HUVEC; 1, 5, 10, 25 μM; 10 ng/mL VEGF; 12 hours
Procedure: 3×10^5 HUVEC were placed on a 60 mm plate and cultured for 24 hours. After washing twice with M199 medium (Invitrogen, USA), the cells were cultured in M199 medium containing 1% FBS for 6 hours. After adding capsiate or dihydrocapsiate at different concentrations (1 μM, 5 μM, 10 μM, 25 μM), followed by pre-culturing for 30 minutes, 10 ng/mL VEGF was added and the cells were cultured for 12 hours. The cells were collected and proteins obtained therefrom were quantitated and the expression level of the proteins was identified by Western blotting using antibodies of cyclin D1, cyclin E and cyclin A.

COX-2 [2] = test: UV-induced COX-2 expression in mouse skin tissue, Western blotting; assay type: in vivo; conditions: hairless mouse; 200 μL of 1 mM topically; 4 times of UV irradiation
Procedure: In order to confirm the in vitro experiment result performed on the human keratinocyte HaCaT cells in an animal model, experiment was carried out as follows using hairless mouse (SKH-1). Test groups were as follows: non-treated group—treated with acetone only without UV irradiation; test group A—treated with 200 μL of 1 mM capsiate dissolved in acetone every 24 hours without UV irradiation; control group—treated with UV and acetone; test group B—treated with UV and 200 μL of 1 mM capsiate dissolved in acetone every 24 hours (Unspecified conditions are the same as in Examples 5-7.).
Capsiate was applied on the back of the mouse. 1 hour later, UV was irradiated at an intensity of 2.5 kJ/m^2. 1 hour later, capsiate was applied again at the same concentration in order to prevent rash which may occur immediately after UV irradiation. Thereafter, capsiate was applied every 24 hours and UV irradiation was carried out every other day at an intensity of 2.5 kJ/m^2 for 4 times. In order to investigate the change of tissue and intracellular mechanism (signaling), the mouse was euthanized 1 hour after the final UV irradiation. Skin tissue was taken from the back of the mouse and subjected to skin biopsy following observation.
In the foregoing, it was confirmed that capsiate suppress inflammatory response, angiogenesis, edema, etc. caused by the UV-induced skin damage. […]

| SMILES | UV-induced COX-2 expression (COX-2 [1]) | expression of TNF-α (mRNA) increased by UV irradiation (TNF-α) | level of CD31 expression in Matrigel plug (CD31) | VEGF-increased cyclin D1 expression in protein level (cyclin D1) | expression of COX-2 induced in mouse skin tissue (Western blotting) (COX-2 [2]) |
| --- | --- | --- | --- | --- | --- |
| COc1cc(COC(=O)CCCC/C=C/C(C)C)ccc1O [capsiate] | decreased in a concentration-dependent manner | significantly decreases | decreased to the extent comparable to the control group | concentration-dependent decrease | remarkably decreased |
| COc1cc(COC(=O)CCCCCCC(C)C)ccc1O [dihydrocapsiate] | decrease of the increased COX-2 expression in a concentration-dependent manner |  | decreased to the extent comparable to the control group | concentration-dependent decrease |  |

From patent publication US9572786B2, “Use of capsiate or dihydrocapsidate” (Catholic University Industry Academy Cooperation Foundation, priority 2007, dated 2017)
